Data reported in patent US20220151230A1, “SPECIFICALLY SUBSTITUTED 3-(2-HALOGEN-6-ALKYL-4-PROPINYLPHENYL)-3-PYRROLIN-2-ONES AND TO THE USE THEREOF AS HERBICIDES” (Bayer Aktiengesellschaft, priority 2019, published 2022).

Columns and labels:
[1] = system: ALOMY; experiment: Post-emergence herbicidal effect against ALOMY; type: in vivo, Alopecurus myosuroides; details: one-leaf stage, 80 g/ha, assessed visually after about 3 weeks vs untreated controls, 100% = plants have died
Method in brief: (§1)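 Visual scoring about 3 weeks after treatment gave % herbicidal action relative to untreated plants (0% = control-like, 100% = plants dead). Compounds, as WP or EC with 0.2% wetting agent, were sprayed onto green parts at 600–800 l/ha. Plants had reached the one-leaf stage, 2–3 weeks after sowing in sandy loam under greenhouse conditions.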

[2] = system: AVEFA; experiment: Post-emergence herbicidal effect against AVEFA; type: in vivo, Avena fatua; details: one-leaf stage, 80 g/ha, assessed visually after about 3 weeks vs untreated controls, 100% = plants have died
Description: (§2) Seeds of monocotyledonous and dicotyledonous weed and crop plants are laid out in sandy loam soil in wood-fiber pots, covered with soil and cultivated in a greenhouse under good growth conditions. 2 to 3 weeks after sowing, the test plants are treated at the one-leaf stage. The compounds of the invention, formulated in the form of wettable powders (WP) or as emulsion concentrates (EC), are then sprayed onto the green parts of the plants as aqueous suspension or emulsion at a water application rate equating to 600 to 800 l/ha with addition of 0.2% wetting agent. After the test plants have been left to stand in the greenhouse under optimal growth conditions for about 3 weeks, the action of the preparations is assessed visually in comparison to untreated controls (herbicidal action in percent (%): 100% activity=the plants have died, 0% activity=like control plants).

[3] = system: DIGSA; experiment: Post-emergence herbicidal effect against DIGSA; type: in vivo, Digitaria sanguinalis; details: one-leaf stage, 80 g/ha, assessed visually after about 3 weeks vs untreated controls, 100% = plants have died
Description: as §2

[4] = system: ECHCG; experiment: Post-emergence herbicidal effect against ECHCG; type: in vivo, Echinochloa crus-galli; details: one-leaf stage, 80 g/ha, assessed visually after about 3 weeks vs untreated controls, 100% = plants have died
Method in brief: as §1

[5] = system: LOLRI; experiment: Post-emergence herbicidal effect against LOLRI; type: in vivo, Lolium rigidum; details: one-leaf stage, 80 g/ha, assessed visually after about 3 weeks vs untreated controls, 100% = plants have died
Description: as §2

[6] = system: SETVI; experiment: Post-emergence herbicidal effect against SETVI; type: in vivo, Setaria viridis; details: one-leaf stage, 80 g/ha, assessed visually after about 3 weeks vs untreated controls, 100% = plants have died
Method in brief: as §1

[7] = system: HORMU; experiment: Post-emergence herbicidal effect against HORMU; type: in vivo, Hordeum murinum; details: one-leaf stage, 80 g/ha, assessed visually after about 3 weeks vs untreated controls, 100% = plants have died
Description: as §2

[8] = system: ALOMY; experiment: Pre-emergence herbicidal effect against ALOMY; type: in vivo, Alopecurus myosuroides; details: 320 g/ha, scored visually after 3 weeks vs untreated controls, 100% = plants have died
Method in brief: (§3)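 Seeds sown in sandy loam in wood-fiber pots and covered with soil; WP or EC formulations applied to covering soil surface as aqueous suspension/emulsion at 600 to 800 L/ha water plus 0.2% wetting agent. Greenhouse-grown; damage scored visually after 3 weeks versus untreated controls (100% = dead, 0% = like control).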

[9] = system: AVEFA; experiment: Pre-emergence herbicidal effect against AVEFA; type: in vivo, Avena fatua; details: 320 g/ha, scored visually after 3 weeks vs untreated controls, 100% = plants have died
Method in brief: as §3

[10] = system: DIGSA; experiment: Pre-emergence herbicidal effect against DIGSA; type: in vivo, Digitaria sanguinalis; details: 320 g/ha, scored visually after 3 weeks vs untreated controls, 100% = plants have died
Method in brief: as §3

[11] = system: LOLRI; experiment: Pre-emergence herbicidal effect against LOLRI; type: in vivo, Lolium rigidum; details: 320 g/ha, scored visually after 3 weeks vs untreated controls, 100% = plants have died
Method in brief: as §3

[12] = system: SETVI; experiment: Pre-emergence herbicidal effect against SETVI; type: in vivo, Setaria viridis; details: 320 g/ha, scored visually after 3 weeks vs untreated controls, 100% = plants have died
Method in brief: as §3

[13] = system: VIOTR; experiment: Pre-emergence herbicidal effect against VIOTR; type: in vivo, Viola tricolor; details: 320 g/ha, scored visually after 3 weeks vs untreated controls, 100% = plants have died
Description: Seeds of monocotyledonous and dicotyledonous weed plants and crop plants are laid out in sandy loam soil in wood-fiber pots and covered with soil. The compounds of the invention, formulated in the form of wettable powders (WP) or as emulsion concentrates (EC), are then applied to the surface of the covering soil as aqueous suspension or emulsion at a water application rate equating to 600 to 800 L/ha with addition of 0.2% wetting agent.
After the treatment, the pots are placed in a greenhouse and kept under good growth conditions for the trial plants. The damage to the test plants is scored visually after a test period of 3 weeks by comparison with untreated controls (herbicidal activity in percent (%): 100% activity=the plants have died, 0% activity=like control plants).

[14] = system: ECHCG; experiment: Pre-emergence herbicidal effect against ECHCG; type: in vivo, Echinochloa crus-galli; details: 320 g/ha, scored visually after 3 weeks vs untreated controls, 100% = plants have died
Method in brief: as §3

Structure (SMILES)	Post-emergence action [%] against ALOMY [1] [%]	Post-emergence action [%] against AVEFA [2] [%]	Post-emergence action [%] against DIGSA [3] [%]	Post-emergence action [%] against ECHCG [4] [%]	Post-emergence action [%] against LOLRI [5] [%]	Post-emergence action [%] against SETVI [6] [%]	Post-emergence action [%] against HORMU [7] [%]	Pre-emergence action [%] against ALOMY [8] [%]	Pre-emergence action [%] against AVEFA [9] [%]	Pre-emergence action [%] against DIGSA [10] [%]	Pre-emergence action [%] against LOLRI [11] [%]	Pre-emergence action [%] against SETVI [12] [%]	Pre-emergence action [%] against VIOTR [13] [%]	Pre-emergence action [%] against ECHCG [14] [%]
CC#Cc1cc(C)c(C2=C(O)C3(CCC(OC(C)C)CC3)NC2=O)c(Cl)c1 (stereo not drawn) [Example E13]	100	100	100	100	100	100	100	–	–	–	–	–	–	–
CC#Cc1cc(C)c(C2=C(OC(=O)C(C)C)C3(CCC(OC)CC3)NC2=O)c(Cl)c1 (stereo not drawn) [Example P12]	100	100	100	100	100	100	100	–	–	–	–	–	–	–
CC#Cc1cc(C)c(C2=C(OC(=O)OCC)C3(CCC(OC)CC3)NC2=O)c(Cl)c1 (stereo not drawn) [Example P11]	100	100	100	100	100	100	90	–	–	–	–	–	–	–
CC#Cc1cc(C)c(C2=C(OC(=O)OCC)C3(CCC(OCCOC)CC3)NC2=O)c(Cl)c1 (stereo not drawn) [Example P17]	100	100	100	100	100	100	–	100	100	100	100	100	100	100
CC#Cc1cc(C)c(C2=C(O)C3(CCC(OC)CC3)NC2=O)c(Cl)c1 (stereo not drawn) [Example E19]	100	100	100	100	100	100	100	–	–	–	–	–	–	–
CC#Cc1cc(C)c(C2=C(O)C3(CCCC(OCCC)C3)NC2=O)c(Br)c1 (stereo not drawn) [Example D5]	100	100	100	100	100	100	–	100	100	100	100	100	100	100
CC#Cc1cc(C)c(C2=C(O)C3(CCC(CC)CC3)NC2=O)c(Cl)c1 (stereo not drawn) [Example E1]	100	100	100	100	100	100	100	–	–	–	–	–	–	–
CC#Cc1cc(C)c(C2=C(O)C3(CCC(OCCOC)CC3)NC2=O)c(Cl)c1 (stereo not drawn) [Example E16]	100	100	100	100	100	100	–	100	100	100	100	100	100	100
CC#Cc1cc(C)c(C2=C(O)C3(CCCC(OCCC)C3)NC2=O)c(Cl)c1 (stereo not drawn) [Example D1, 3-[2-Chloro-6-methyl-4-(prop-1-yn-1-yl)phenyl]-4-hydroxy-7-propoxy-1-azaspiro[4.5]dec-3-en-2-one]	100	100	100	100	100	100	100	–	–	–	–	–	–	–
CC#Cc1cc(C)c(C2=C(OC(=O)OCC)C3(CCC(OC)CC3)NC2=O)c(Br)c1 (stereo not drawn) [Example P13]	100	100	100	100	100	100	–	100	100	100	100	100	100	100
CC#Cc1cc(C)c(C2=C(O)C3(CCC(OCC)CC3)NC2=O)c(Cl)c1 (stereo not drawn) [Example E10]	100	100	100	100	100	100	100	–	–	–	–	–	–	–
C=CCOC1CCC2(CC1)NC(=O)C(c1c(C)cc(C#CC)cc1Cl)=C2O (stereo not drawn) [Example E7]	100	80	100	100	100	100	90	–	–	–	–	–	–	–
CC#Cc1cc(C)c(C2=C(OC(=O)OCC)C3(CCC(CC)CC3)NC2=O)c(Cl)c1 (stereo not drawn) [Example P3]	100	–	100	100	100	100	100	–	–	–	–	–	–	–
